Laboratory results taken from patent publication US10494410B2, “Inhibitor Peptides of ERK-type MAP kinase” (Universite Pierre Et Marie Curie, priority 2005, dated 2019).
Ends that are not written are not given here.

What was measured:
HEK293 cells = test: Cell penetration and intracellular localization of FITC-coupled peptide in HEK293 cells (fluorescence, Hoechst nuclei); type: cell-based; conditions: unlabeled peptide, statement in Example 1; cells not specified
Protocol: HEK293 cells are placed in the presence of the peptide F2 at various concentrations (1 mM stock solution in distilled water, then dilutions to 25, 50 and 100 μM in DMEM culture medium), for 15, 30 or 60 minutes, continuously. The cell nuclei are labeled using Hoechst dye (left panel), and the peptide F2 is visualized by means of the FITC label (middle panel). […] The labeled cell nuclei are shown on the left panels, the peptide F2 on the middle panels and the superimposition of these two labelings is represented on the right panels (panels marked fusion).
HEK293 cells are placed in the presence of the peptide F1 at various concentrations (1 mM stock solution in distilled water, then dilutions to 25, 50 and 100 μM in
DMEM culture medium) for 15, 30 or 60 minutes, continuously. The cell nuclei are labeled using Hoechst dye, and the peptide F1 is visualized by means of the FITC label.

Elk-1 = test: Serum-induced P-Elk-1 in HEK cells, immunocytochemistry; type: cell-based; conditions: peptide 10 μM for 40 minutes, serum 20 minutes
Protocol: HEK cells are placed in the presence of the peptide P2 (FIG. 4, middle panels) or P1 (FIG. 4, right panels), at the concentration of 10 μM for 40 minutes. Nontreated cells (without peptide) are used as controls (FIG. 4, left panels).
The cells are then treated for 20 minutes using fetal calf serum (serum) in order to activate the MAP kinase/ERK pathway.
The corresponding nuclei are visualized by means of the same star on the panels of the third line, marked Hoechst.

For “GRKKRRQRRRCCTLWQFLLHLLLDSPAKLSFQFPSGSAQVHI (sequence which inhibits the interaction between Elk 1 and ERK) [Peptide P1, HIV-TAT penetrating peptide, CC cleavage site, NES of Net, FXFP docking domain of Elk-1]”, the cell penetration (HEK293 cells) was “penetrates into the cells” and the “induction of P-Elk-1 (phosphorylation of Elk-1) in response to serum” value (Elk-1) was “not and also in the presence of serum and of the peptide P1”.
In the case of “GRKKRRQRRRPPSPAKLSFQFPSGSAQVHI [Peptide P2]”, the cell penetration (HEK293 cells) is reported as “penetrates into the cells”.
